In patent publication US6190699A, “Method of incorporating proteins or peptides into a matrix and administration thereof through mucosa” (NZL Corporation, priority 1998, dated 2001):
Read-outs that look alike come from different tables or passages of the source.

Legend:
rats = conditions: cited from earlier work
[1] = Serum insulin levels (radio immune assay) in diabetic rabbits; conditions: intravenous injection, 0.3 and 0.4 U/kg insulin, diabetic rabbits (FIG. 2)
Description: The animals used in this study were Male New Zealand White rabbits weighing approximately 2.5 kg. (Charles River Labs, Amherst, Mass.). The animals were housed individually in cages and given standard animal chow and water. All animals were treated according to the Guiding Principles for Laboratory Animal Care of the American Physiologic Society.
The animals were made diabetic by intravenously injecting 80 mg/kg of Alloxan suspended in isotonic saline solution into the animal. The animals' blood glucose levels were monitored every two to three hours for the first three days. When glucose levels reached 500 mg/dl during the first three days, insulin (0.15 U/kg) was administered.
Prior to the experiment, the animals were fasted for 16 hours. The animals were then anesthetized by intravenously administering 30 mg/kg sodium pentobarbital. Forty minutes following the initial dose of pentobarbital, a second dose (6 mg/kg) was administered to the animals. […]
The animals were placed into groups of 3 to 7 animals for each experiment. […] Blood glucose levels and serum insulin levels were measured for each experiment. […]
Following the blood glucose analysis, serum samples were obtained by centrifuging the blood samples collected at 3000 rpm for 10 minutes. […] Serum insulin levels were determined using radio immune assay kits. […]

diabetic rabbits = assay: Blood glucose levels in alloxan-diabetic rabbits after intravenous or intranasal insulin; format: in vivo, Male New Zealand White rabbits; conditions: intravenous injection, 0.3 and 0.4 U/kg insulin, -30 to 300 minutes (FIG. 1)

## insulin
rats; intranasal vs parenteral
  increase in concentration of insulin required intranasally to reach plasma glucose levels similar to parenteral administration: 10 fold
rats; intravenous administration
  plasma glucose levels: decreased significantly
rats; oral administration
  plasma glucose levels: only slightly decreased
[1]
  serum insulin levels: serum insulin levels increased as the blood glucose levels fell
Diabetic rabbits
  blood glucose levels: showed a fall in blood glucose levels
